ChEMBL document CHEMBL5046233, “Nitroxoline and its derivatives are potent inhibitors of metallo-β-lactamases” (Eur J Med Chem, 2022)
The source made the active and inactive calls. No cut-off for these calls is given here.

Assays:
[1] = test system: Escherichia coli; experiment: Antimicrobial activity against Escherichia coli T2359 expressing NDM-1 assessed as inhibition of bacterial growth by CLSI protocol based broth microdilution assay; assay type: functional
[2] = test system: Enterobacter cloacae; experiment: Potentiation of imipenem-induced antibacterial activity against Enterobacter cloacae T2311 expressing NDM-1 assessed as fold change in imipenem MIC at 32 mg/L by CLSI protocol based broth microdilution assay; assay type: functional
[3] = test system: Pseudomonas aeruginosa; experiment: Potentiation of imipenem-induced antibacterial activity against Pseudomonas aeruginosa T2229 expressing SPM-1 assessed as fold change in imipenem MIC at 32 mg/L by CLSI protocol based broth microdilution assay; assay type: functional
[4] = test system: Pseudomonas aeruginosa; experiment: Potentiation of imipenem-induced antibacterial activity against Pseudomonas aeruginosa T2325 expressing IMP-1 assessed as fold change in imipenem MIC at 32 mg/L by CLSI protocol based broth microdilution assay; assay type: functional
[5] = test system: Klebsiella pneumoniae; experiment: Potentiation of piperacillin-induced antibacterial activity against Klebsiella pneumoniae clinical isolate T2301 expressing NDM-1 assessed as piperacillin MIC at 32 mg/L by CLSI protocol based broth microdilution assay; assay type: functional
[6] = test system: Klebsiella pneumoniae; experiment: Antimicrobial activity against Klebsiella pneumoniae T2301 expressing NDM-1 assessed as inhibition of bacterial growth at 0.5XMIC for 6 hrs by CLSI protocol based broth microdilution assay; assay type: functional, organism-based
[7] = test system: Escherichia coli; experiment: Potentiation of cefuroxime-induced antibacterial activity against Escherichia coli clinical isolate T2228 expressing VIM-1 assessed as cefuroxime MIC at 32 mg/L by CLSI protocol based broth microdilution assay; assay type: functional
[8] = test system: Escherichia coli; experiment: Potentiation of imipenem-induced antibacterial activity against Escherichia coli T2544 expressing VIM-1 assessed as imipenem MIC at 32 mg/L by CLSI protocol based broth microdilution assay; assay type: functional
[9] = test system: Escherichia coli; experiment: Potentiation of gentamicin-induced antibacterial activity against Escherichia coli clinical isolate T2228 expressing VIM-1 assessed as gentamicin MIC at 32 mg/L by CLSI protocol based broth microdilution assay; assay type: functional
[10] = test system: Escherichia coli; experiment: Antimicrobial activity against Escherichia coli T2544 expressing VIM-1 assessed as inhibition of bacterial growth by CLSI protocol based broth microdilution assay; assay type: functional
[11] = test system: Bacteria; experiment: Inhibition of recombinant IMP-1 (unknown origin) using fluorocillin as substrate at 30 uM incubated for 30 mins by fluorescence based assay

MIC [1]: > 64 ng/mL
MIC [5]: 2050 ng/mL
MIC [7]: 2 ng/mL
MIC [8]: 0.5 ng/mL
MIC [9]: 2 ng/mL
MIC [10]: > 65 ng/mL
inhibition [11]: 98%
Compound: N#CCN(Cc1ccccc1)Cc1cc([N+](=O)[O-])c2cccnc2c1O
fold change (FC) [2]: 16
fold change (FC) [3]: 16
fold change (FC) [4]: 32
inhibition [6]: Active
